Key:
[1] = system: ECHORC (Watergrass (Calif.)); test: Preemergence weed control under flooded paddy conditions; assay type: in vivo, Echinochloa oryzoides; conditions: rated 3-4 weeks after treatment
Summary of the method: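 Ratings on a 0-9 visual scale cover stand, vigor, malformation, size, chlorosis and overall appearance relative to a control, taken three to four weeks post-treatment. Application was into flood water over freshly sown silt loam at roughly 0.0313 to 0.500 kg/ha.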

[2] = system: SAGPY (Arrowhead (Pygmaea)); test: Postemergence weed control under flooded paddy conditions; assay type: in vivo, Sagittaria pygmaea; conditions: postemergence weeds, rated 3 to 4 weeks after treatment
Summary of the method: (§1)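 Flood-water application, about 0.0313–0.500 kg/ha a.i. in aqueous/acetone 50/50 v/v; water depth 1.5–3 cm throughout. Weeds 3–5 cm, rice 1.5–2.5 leaf. Greenhouse; 0–9 visual rating vs control at 3–4 wk.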

GALAP (Galium) [3] = test: Postemergence herbicidal evaluation; assay type: in vivo, Galium aparine; conditions: postemergence
Summary of the method: (§2)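 Visual 0–9 rating versus control (stand, vigor, malformation, size, chlorosis, overall appearance), taken four to five weeks post-spray. Two-week-old seedlings received roughly 0.0156–0.500 kg/ha active in acetone/water (50/50) with 0.5% TWEEN 20 via nozzle at 40 psi.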

CYPSE (Flatsedge) = test: Preemergence weed control under flooded paddy conditions; assay type: in vivo, Cyperus serotinus; conditions: rated 3-4 weeks after treatment
Summary of the method: (§3)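 Silt loam, seeds in top 0.5 cm; flood held 1.5-3 cm; test cpd as acetone/water 50/50 into flood water, ~0.0313-0.500 kg/ha a.i.; greenhouse 3-4 wk; visual 0-9 score vs control.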

GALAP (Galium) [4] = test: Preemergence herbicidal evaluation; assay type: in vivo, Galium aparine; conditions: rated 4-5 weeks after treatment
Summary of the method: (§4)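 Each species is sown separately in potting soil over roughly an inch of soil before any emergence. The soil surface then receives an aqueous acetone spray delivering about 0.0156 to 0.500 kg/ha of compound. After four to five weeks, injury is scored from 0 to 9 relative to a control.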

[5] = system: TRZAWR (Wheat, Winter, cv Riband); test: Postemergence herbicidal evaluation; assay type: in vivo, Triticum aestivum; conditions: postemergence
Summary of the method: as §2

CASOB (Sicklepod) = test: Postemergence herbicidal evaluation; assay type: in vivo, Cassia obtusifolia; conditions: postemergence
Summary of the method: as §2

[6] = system: GLXMAW (Soybean, Williams); test: Postemergence herbicidal evaluation; assay type: in vivo, Glycine max, (L.) Merr. cv Williams; conditions: postemergence
Summary of the method: as §2

AMBEL (Ragweed, Common) = test: Postemergence herbicidal evaluation; assay type: in vivo, Ambrosia artemisifolia; conditions: postemergence
Summary of the method: as §2

ORYSAT (Rice, Tebonnet) = test: Preemergence herbicidal evaluation; assay type: in vivo, Oryza sativa, (L.) Tebonnet; conditions: rated 4-5 weeks after treatment
Summary of the method: as §4

[7] = system: ECHORC (Watergrass (Calif.)); test: Postemergence weed control under flooded paddy conditions; assay type: in vivo, Echinochloa oryzoides; conditions: postemergence weeds, rated 3 to 4 weeks after treatment
Summary of the method: as §1

[8] = system: SAGPY (Arrowhead (Pygmaea)); test: Preemergence weed control under flooded paddy conditions; assay type: in vivo, Sagittaria pygmaea; conditions: rated 3-4 weeks after treatment
Summary of the method: as §3

SETVI (Foxtail, Green) = test: Preemergence herbicidal evaluation; assay type: in vivo, Setaria viridis; conditions: rated 4-5 weeks after treatment
Summary of the method: as §4

MOOVA (Monochoria) = test: Preemergence weed control under flooded paddy conditions; assay type: in vivo, Monochoria vaginalis; conditions: rated 3-4 weeks after treatment
Summary of the method: as §3

`Cn1c(C(F)(F)F)cc(=O)n(-c2cc(N=C3SCC(=O)N3CC(=O)OCC#N)c(Cl)cc2F)c1=O` [Compound 109, 2-{{2-Chloro-5-[3,6-dihydro-3-methyl-2,6-dioxo-4-(trifluoromethyl)-1(2H)-pyrimidinyl]-4-fluorophenyl}imino}-4-oxo-3-thiazolidineacetic acid, ester with glycolonitrile] was tested, and the “ECHORC herbicidal effect rating” value ([1]; 0.0313 kg/ha) was 9.0, the “ECHORC herbicidal effect rating” value ([1]; 0.0625 kg/ha) was 9.0 and the “ECHORC herbicidal effect rating” value ([1]; 0.1250 kg/ha) was 9.0. The “ECHORC herbicidal effect rating” value ([1]; 0.2500 kg/ha) was 9.0, the “Herbicidal rating SAGPY” value ([2]; Rate 0.0313 kg/ha) was 0.0 and the “Herbicidal rating SAGPY” value ([2]; Rate 0.0625 kg/ha) was 0.0. The “Herbicidal rating SAGPY” value ([2]; Rate 0.1250 kg/ha) was 0.0, the “Herbicidal rating SAGPY” value ([2]; Rate 0.2500 kg/ha) was 0.0 and the “herbicidal rating GALAP” value (GALAP (Galium) [3]; rate 0.0158 kg/ha) was 1.0. The “herbicidal rating GALAP” value (GALAP (Galium) [3]; rate 0.0315 kg/ha) was 3.0, the “herbicidal rating GALAP” value (GALAP (Galium) [3]; rate 0.0630 kg/ha) was 5.0 and the “CYPSE herbicidal effect rating” value (CYPSE (Flatsedge); 0.0313 kg/ha) was 4.5. The “CYPSE herbicidal effect rating” value (CYPSE (Flatsedge); 0.0625 kg/ha) was 5.5, the “CYPSE herbicidal effect rating” value (CYPSE (Flatsedge); 0.1250 kg/ha) was 9.0 and the “CYPSE herbicidal effect rating” value (CYPSE (Flatsedge); 0.2500 kg/ha) was 6.5. For the same compound, the “Preemergence herbicidal rating GALAP” value (GALAP (Galium) [4]; rate 0.0156 kg/ha) was 3.0, the “Preemergence herbicidal rating GALAP” value (GALAP (Galium) [4]; rate 0.0313 kg/ha) was 3.0 and the “Preemergence herbicidal rating GALAP” value (GALAP (Galium) [4]; rate 0.0625 kg/ha) was 3.0. The “Preemergence herbicidal rating GALAP” value (GALAP (Galium) [4]; rate 0.1250 kg/ha) was 4.0, the “Preemergence herbicidal rating GALAP” value (GALAP (Galium) [4]; rate 0.2500 kg/ha) was 4.0 and the “herbicidal rating TRZAWR” value ([5]; rate 0.0158 kg/ha) was 3.0. The “herbicidal rating TRZAWR” value ([5]; rate 0.0315 kg/ha) was 4.0, the “herbicidal rating TRZAWR” value ([5]; rate 0.0630 kg/ha) was 4.5 and the “herbicidal rating CASOB” value (CASOB (Sicklepod); rate 0.0158 kg/ha) was 1.0. For the same compound, the “herbicidal rating CASOB” value (CASOB (Sicklepod); rate 0.0315 kg/ha) was 7.0, the “herbicidal rating CASOB” value (CASOB (Sicklepod); rate 0.0630 kg/ha) was 9.0 and the “herbicidal rating GLXMAW” value ([6]; rate 0.0158 kg/ha) was 7.0. For the same compound, the “herbicidal rating GLXMAW” value ([6]; rate 0.0315 kg/ha) was 8.0, the “herbicidal rating GLXMAW” value ([6]; rate 0.0630 kg/ha) was 8.0 and the “herbicidal rating AMBEL” value (AMBEL (Ragweed, Common); rate 0.0158 kg/ha) was 9.0. For the same compound, the “herbicidal rating AMBEL” value (AMBEL (Ragweed, Common); rate 0.0315 kg/ha) was 9.0, the “herbicidal rating AMBEL” value (AMBEL (Ragweed, Common); rate 0.0630 kg/ha) was 9.0 and the “Preemergence herbicidal rating ORYSAT” value (ORYSAT (Rice, Tebonnet); rate 0.0156 kg/ha) was 0.0. The “Preemergence herbicidal rating ORYSAT” value (ORYSAT (Rice, Tebonnet); rate 0.0313 kg/ha) was 1.0, the “Preemergence herbicidal rating ORYSAT” value (ORYSAT (Rice, Tebonnet); rate 0.0625 kg/ha) was 2.0 and the “Preemergence herbicidal rating ORYSAT” value (ORYSAT (Rice, Tebonnet); rate 0.1250 kg/ha) was 4.0. The “Preemergence herbicidal rating ORYSAT” value (ORYSAT (Rice, Tebonnet); rate 0.2500 kg/ha) was 5.0, the “Preemergence herbicidal rating ORYSAT” value (ORYSAT (Rice, Tebonnet); rate 0.5000 kg/ha) was 6.0 and the “Herbicidal rating ECHORC” value ([7]; Rate 0.0313 kg/ha) was 2.0. For the same compound, the “Herbicidal rating ECHORC” value ([7]; Rate 0.0625 kg/ha) was 2.0, the “Herbicidal rating ECHORC” value ([7]; Rate 0.1250 kg/ha) was 7.0 and the “Herbicidal rating ECHORC” value ([7]; Rate 0.2500 kg/ha) was 9.0. For the same compound, the “SAGPY herbicidal effect rating” value ([8]; 0.0313 kg/ha) was 4.5, the “SAGPY herbicidal effect rating” value ([8]; 0.0625 kg/ha) was 7.5 and the “SAGPY herbicidal effect rating” value ([8]; 0.1250 kg/ha) was 9.0. The “SAGPY herbicidal effect rating” value ([8]; 0.2500 kg/ha) was 9.0, the “Preemergence herbicidal rating SETVI” value (SETVI (Foxtail, Green); rate 0.0156 kg/ha) was 5.5 and the “Preemergence herbicidal rating SETVI” value (SETVI (Foxtail, Green); rate 0.0313 kg/ha) was 6.0. The “Preemergence herbicidal rating SETVI” value (SETVI (Foxtail, Green); rate 0.0625 kg/ha) was 9.0, the “Preemergence herbicidal rating SETVI” value (SETVI (Foxtail, Green); rate 0.1250 kg/ha) was 9.0 and the “Preemergence herbicidal rating SETVI” value (SETVI (Foxtail, Green); rate 0.2500 kg/ha) was 9.0. The “Preemergence herbicidal rating SETVI” value (SETVI (Foxtail, Green); rate 0.5000 kg/ha) was 9.0, the “MOOVA herbicidal effect rating” value (MOOVA (Monochoria); 0.0313 kg/ha) was 7.0 and the “MOOVA herbicidal effect rating” value (MOOVA (Monochoria); 0.0625 kg/ha) was 9.0. For the same compound, the “MOOVA herbicidal effect rating” value (MOOVA (Monochoria); 0.1250 kg/ha) was 9.0 and the “MOOVA herbicidal effect rating” value (MOOVA (Monochoria); 0.2500 kg/ha) was 9.0.
